Assay results reported in US20260022143A1, “Cyclic Peptide Inhibitors of IL-23” (JANSSEN PHARMACEUTICA NV, priority 2022, published 2026).
Where a name gives a salt, the structure may show the parent alone. Read-outs that look alike come from different tables or passages of the source. Positions of bridges follow the written chain, without caps; N, C: chain ends. Non-standard residues stand in square brackets, D forms with d. Residues, ends and D or L forms follow the SMILES beside them. *: point of attachment. Trp(7-(3-AcNH-Ph)) = CC(=O)Nc1cccc(-c2cccc3c(C[C@H](N)C(=O)O)c[nH]c23)c1; Me3N+(CH2)2O(CH2)2O(CH2)2CO = C[N+](C)(C)CCOCCOCCC(=O)*; Trp(7-Me) = Cc1cccc2c(C[C@H](N)C(=O)O)c[nH]c12; dLys(Me3) = C[N+](C)(C)CCCC[C@@H](N)C(=O)O; 2Nal = N[C@@H](Cc1ccc2ccccc2c1)C(=O)O; AEF = NCCOc1ccc(C[C@H](N)C(=O)O)cc1; 3Pal = N[C@@H](Cc1cccnc1)C(=O)O; Lys(Me) = CNCCCC[C@H](N)C(=O)O; Pen = CC(C)(S)[C@H](N)C(=O)O; Thp = NC1(C(=O)O)CCOCC1; X3 = C[N+](C)(C)CCCCC*; Me2NCH2CH2 = CN(C)CC*; Tfa = O=C(C(F)(F)F)*; Sar = CNCC(=O)O

What was measured:
[1] = molecular target: T1, interleukin-23 (IL-23) receptor (Homo sapiens, UniProt Q5VWK5); test: PBMC pSTAT3 assay; type: cell-based
T1 construct: Cryopreserved peripheral blood mononuclear cells (PBMCs) from healthy donors were thawed; endogenous in cells; host or cells: cryopreserved PBMCs from healthy donors, expanded 4 days on anti-CD3 with IL-1
T1 sequence (Q5VWK5 24-629): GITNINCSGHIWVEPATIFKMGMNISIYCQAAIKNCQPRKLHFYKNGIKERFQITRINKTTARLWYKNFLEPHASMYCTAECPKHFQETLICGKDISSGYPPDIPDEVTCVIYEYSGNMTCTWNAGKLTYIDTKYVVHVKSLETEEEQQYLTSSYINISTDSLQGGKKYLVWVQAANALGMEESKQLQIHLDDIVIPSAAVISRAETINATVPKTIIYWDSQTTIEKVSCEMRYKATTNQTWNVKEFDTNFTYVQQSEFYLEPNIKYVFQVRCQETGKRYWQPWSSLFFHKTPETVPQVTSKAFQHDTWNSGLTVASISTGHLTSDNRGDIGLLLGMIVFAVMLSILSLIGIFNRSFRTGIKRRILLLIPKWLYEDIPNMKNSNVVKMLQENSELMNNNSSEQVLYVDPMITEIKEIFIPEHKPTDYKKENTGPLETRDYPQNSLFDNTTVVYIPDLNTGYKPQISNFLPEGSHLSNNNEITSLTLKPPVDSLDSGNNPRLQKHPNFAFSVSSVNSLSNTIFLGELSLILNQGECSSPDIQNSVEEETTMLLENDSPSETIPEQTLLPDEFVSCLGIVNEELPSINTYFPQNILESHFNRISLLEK
Protocol: Cryopreserved peripheral blood mononuclear cells (PBMCs) from healthy donors were thawed and washed twice in ImmunoCult-XF T cell expansion medium (XF-TCEM) supplemented with CTL anti-aggregate wash. The cells were counted, resuspended at 2×10^5 cells per mL XF-TCEM supplemented with penicillin/streptomycin and 100 ng/mL IL-1 (BioLegend, 579404), and cultured in tissue culture flasks coated with anti-CD3 (eBioscience, 16-0037-85 or BD Pharmingen, 555329) at 37° C. in 5% CO2. On day 4 of culture, PBMCs were collected, washed twice in RPMI-1640 supplemented with 0.1% BSA (RPMI-BSA), and incubated in RPMI-BSA in upright tissue culture flasks for 4 hours at 37° C. in 5% CO2. Following this ‘starvation,’ a total of 6×10^4 cells in […] RPMI-BSA was transferred into each well of a 384-well plate pre-spotted with peptide or DMSO. The cells were incubated for 30 minutes prior to the addition of IL-23 at a final concentration of 5 ng/mL. The cells were stimulated with cytokine for 30 minutes at 37° C. in 5% CO2, transferred onto ice for 10 minutes, and lysed. Cell lysates were stored at −80° C. until phosphorylated STAT3 was measured using the phospho-STAT panel kit (Meso Scale Discovery, K15202D).

[2] = Exposed Polar Surface Area (EPSA); type: physicochemical; conditions: SFC on Chirex 3014 column, sample 1 mM DMSO stock
Outline: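 SFC retention on a Chirex 3014 (S-valine/(R)-1-(α-naphthyl)ethylamine) column at 35 °C, 4 mL/min, 14 MPa outlet, 5–60% methanol/20 mM ammonium formate gradient in CO2. Retention times converted to EPSA (Å²) via linear calibration with 8 standards; samples from 1 mM DMSO stock, run in duplicate.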

IL-23R = molecular target: T2, IL-23R (Homo sapiens, UniProt Q5VWK5); test: IL23R Reporter Assay; type: cell-based; conditions: HEK293 cells containing IL-23R, IL-12RP1 and STAT-inducible firefly luciferase reporter; 10 ng/mL IL-23 (EC90); 5 h at 37° C.; read-out: IL23R Reporter Assay
T2 construct: host or cells: HEK293
T2 sequence (Q5VWK5 24-629): T1 sequence (Q5VWK5 24-629)

| SMILES | IC50 [1] [nM] | EPSA ([2]; read-out: EPSA) [A^2] | IC50 (IL-23R) [nM] | EPSA [2] [Å^2] |
| --- | --- | --- | --- | --- |
| CC(=O)N(C)CCCC[C@@H]1NC(=O)[C@H](Cc2c[nH]c3c(C)cccc23)NC(=O)[C@H]([C@@H](C)O)NC(=O)[C@H](CC(=O)N(C)C)NC(=O)[C@@H](NC(=O)C(F)(F)F)C(C)(C)SSC(C)(C)[C@@H](C(=O)N[C@@H](Cc2ccc(OCCN)cc2)C(=O)N[C@@H](Cc2ccc3ccccc3c2)C(=O)NC2(C(=O)N[C@@H](CCCCN(C)C(C)=O)C(=O)N[C@@H](CC(N)=O)C(=O)N[C@@H](Cc3cccnc3)C(=O)N(C)CC(=O)N(C)C)CCOCC2)NC1=O [compound 68, CF3CO-Pen(3)-N(N(Me)2)-T-7MeW-K(NMeAc)-Pen(3)-AEF-2Nal-THP-K(NMeAc)-N-3Pya-Sar-CON(Me)2] (Tfa-[Pen]D(NMe2)T[Trp(7-Me)][Lys(Me)](Ac)[Pen][AEF][2Nal][Thp][Lys(Me)](Ac)N[3Pal][Sar]-NMe2; disulfide 1-6) | 0.012 | 148 | – | – |
| CC(=O)N(C)CCCC[C@@H]1NC(=O)[C@H](Cc2c[nH]c3c(C)cccc23)NC(=O)[C@H]([C@@H](C)O)NC(=O)[C@H](CC(=O)N(C)C)NC(=O)[C@@H](NC(=O)CCOCCOCC[N+](C)(C)C)C(C)(C)SSC(C)(C)[C@@H](C(=O)N[C@@H](Cc2ccc(OCCCCC[N+](C)(C)C)cc2)C(=O)N[C@@H](Cc2ccc3ccccc3c2)C(=O)NC2(C(=O)N[C@@H](CCCCN(C)C(C)=O)C(=O)N[C@@H](CC(N)=O)C(=O)N[C@@H](Cc3cccnc3)C(=O)N(C)CC(=O)N(C)C)CCOCC2)NC1=O [compound 164, cPEG3aCO-Pen(3)-N(N(Me)2)-T-7MeW-K(NMeAc)-Pen(3)-TMAPF-2Nal-THP-K(NMeAc)-N-3Pya-Sar-CON(Me)2] ({Me3N+(CH2)2O(CH2)2O(CH2)2CO}-[Pen]D(NMe2)T[Trp(7-Me)][Lys(Me)](Ac)[Pen]Y(X3)[2Nal][Thp][Lys(Me)](Ac)N[3Pal][Sar]-NMe2; disulfide 1-6) | 0.013 | – | – | 144.54 |
| CC(=O)N(C)CCCC[C@@H]1NC(=O)[C@H](Cc2ccc3ccccc3c2)NC(=O)[C@H]([C@@H](C)O)NC(=O)[C@H](CC(=O)N(C)C)NC(=O)[C@@H](NC(=O)CCOCCOCC[N+](C)(C)C)C(C)(C)SSC(C)(C)[C@@H](C(=O)N[C@@H](Cc2ccc(OCCCCC[N+](C)(C)C)cc2)C(=O)N[C@@H](Cc2ccc3ccccc3c2)C(=O)NC2(C(=O)N[C@@H](CCCCN(C)C(C)=O)C(=O)N[C@@H](CC(N)=O)C(=O)N[C@@H](Cc3cccnc3)C(=O)N(C)CC(=O)N(C)C)CCOCC2)NC1=O [compound 509, cPEG3aCO-Pen(3)-N(N(Me)2)-T-2Nal-K(NMeAc)-Pen(3)-TMAPF-2Nal-THP-K(NMeAc)-N-3Pya-Sar-CONMe2] ({Me3N+(CH2)2O(CH2)2O(CH2)2CO}-[Pen]D(NMe2)T[2Nal][Lys(Me)](Ac)[Pen]Y(X3)[2Nal][Thp][Lys(Me)](Ac)N[3Pal][Sar]-NMe2; disulfide 1-6) | – | 161 | 32 | – |
| CC(=O)NCCCC[C@@H]1NC(=O)[C@H](Cc2c[nH]c3c(-c4cccc(NC(C)=O)c4)cccc23)NC(=O)[C@H]([C@@H](C)O)NC(=O)[C@H](CC(N)=O)NC(=O)[C@@H](NC(C)=O)C(C)(C)SSC(C)(C)[C@@H](C(=O)N[C@@H](Cc2ccc(OCCCCC[N+](C)(C)C)cc2)C(=O)N[C@@H](Cc2ccc3ccccc3c2)C(=O)NC2(C(=O)N[C@@H](CCC(=O)O)C(=O)N[C@@H](CC(N)=O)C(=O)N[C@@H](Cc3cccnc3)C(=O)N(C)CC(N)=O)CCOCC2)NC1=O [compound 451, MeCO-Pen(3)-N-T-7(3NAcPh)W-K(Ac)-Pen(3)-TMAPF-2Nal-THP-E-N-3Pya-Sar-CONH2] (Ac-[Pen]NT[Trp(7-(3-AcNH-Ph))]K(Ac)[Pen]Y(X3)[2Nal][Thp]EN[3Pal][Sar]-NH2; disulfide 1-6) | – | 172 | 1.5 | – |

More lines, in order of falling IC50 [1], values ahead:

| IC50 [1] [nM] | EPSA ([2]; read-out: EPSA) [A^2] | IC50 (IL-23R) [nM] | EPSA [2] [Å^2] | SMILES |
| --- | --- | --- | --- | --- |
| 0.0081 | 160 | 3.2 | – | Cc1cccc2c(C[C@@H]3NC(=O)[C@H]([C@@H](C)O)NC(=O)[C@H](CC(N)=O)NC(=O)[C@@H](NC(=O)C(F)(F)F)C(C)(C)SSC(C)(C)[C@@H](C(=O)N[C@@H](Cc4ccc(OCCN)cc4)C(=O)N[C@@H](Cc4ccc5ccccc5c4)C(=O)NC4(C(=O)N[C@@H](CCC(=O)N(C)C)C(=O)N[C@@H](CC(N)=O)C(=O)N[C@@H](Cc5cccnc5)C(=O)N(C)CC(N)=O)CCOCC4)NC(=O)[C@H](CCC(=O)N(C)C)NC3=O)c[nH]c12 [compound 62] (Tfa-[Pen]NT[Trp(7-Me)]E(NMe2)[Pen][AEF][2Nal][Thp]E(NMe2)N[3Pal][Sar]-NH2; disulfide 1-6 (inferred)) |
| 0.0075 | 155 | – | – | CC(=O)N[C@H](CCCC[N+](C)(C)C)C(=O)N[C@@H]1C(=O)N[C@@H](CC(=O)N(C)C)C(=O)N[C@@H]([C@@H](C)O)C(=O)N[C@@H](Cc2c[nH]c3c(C)cccc23)C(=O)N[C@@H](CCCCN(C)C(C)=O)C(=O)N[C@H](C(=O)N[C@@H](Cc2ccc(OCCN(C)C)cc2)C(=O)N[C@@H](Cc2ccc3ccccc3c2)C(=O)NC2(C(=O)N[C@@H](CCC(=O)O)C(=O)N[C@@H](CC(N)=O)C(=O)N[C@@H](Cc3cccnc3)C(=O)N(C)CC(=O)N(C)C)CCOCC2)C(C)(C)SSC1(C)C [compound 105, MeCO-k(Me)3-Pen(3)-N(N(Me)2)-T-7MeW-K(NMeAc)-Pen(3)-AEF(N(Me)2)-2Nal-THP-E-N-3Pya-Sar-CON(Me)2] (Ac-[dLys(Me3)][Pen]D(NMe2)T[Trp(7-Me)][Lys(Me)](Ac)[Pen]Y(Me2NCH2CH2)[2Nal][Thp]EN[3Pal][Sar]-NMe2; disulfide 2-7) |
| 0.0057 | 171 | – | – | CC(=O)NCCCC[C@@H]1NC(=O)[C@H](Cc2c[nH]c3c(C)cccc23)NC(=O)[C@H]([C@@H](C)O)NC(=O)[C@H](CC(N)=O)NC(=O)[C@@H](NC(=O)CCOCCOCC[N+](C)(C)C)C(C)(C)SSC(C)(C)[C@@H](C(=O)N[C@@H](Cc2ccc(OCCN)cc2)C(=O)N[C@@H](Cc2ccc3ccccc3c2)C(=O)NC2(C(=O)N[C@@H](CCC(=O)O)C(=O)N[C@@H](CC(N)=O)C(=O)N[C@@H](Cc3cccnc3)C(=O)N(C)CC(N)=O)CCOCC2)NC1=O [compound 82, cPEG3aCO-Pen(3)-N-T-7MeW-K(Ac)-Pen(3)-AEF-2Nal-THP-E-N-3Pya-Sar-CONH2] ({Me3N+(CH2)2O(CH2)2O(CH2)2CO}-[Pen]NT[Trp(7-Me)]K(Ac)[Pen][AEF][2Nal][Thp]EN[3Pal][Sar]-NH2; disulfide 1-6) |
| 0.0032 | 150 | – | – | CC(=O)N(C)CCCC[C@@H]1NC(=O)[C@H](Cc2c[nH]c3c(C)cccc23)NC(=O)[C@H]([C@@H](C)O)NC(=O)[C@H](CC(=O)N(C)C)NC(=O)[C@@H](NC(=O)C(F)(F)F)C(C)(C)SSC(C)(C)[C@@H](C(=O)N[C@@H](Cc2ccc(OCCN(C)C)cc2)C(=O)N[C@@H](Cc2ccc3ccccc3c2)C(=O)NC2(C(=O)N[C@@H](CCC(=O)O)C(=O)N[C@@H](CC(N)=O)C(=O)N[C@@H](Cc3cccnc3)C(=O)N(C)CC(=O)N(C)C)CCOCC2)NC1=O [compound 104, CF3CO-Pen(3)-N(N(Me)2)-T-7MeW-K(NMeAc)-Pen(3)-AEF(N(Me)2)-2Nal-THP-E-N-3Pya-Sar-CON(Me)2] (Tfa-[Pen]D(NMe2)T[Trp(7-Me)][Lys(Me)](Ac)[Pen]Y(Me2NCH2CH2)[2Nal][Thp]EN[3Pal][Sar]-NMe2; disulfide 1-6) |
